Data on 16 compounds can be found in patent US10654867B2 (Genentech, Inc., priority 2016, dated 2020).

In the assay the target is T1, estrogen receptor alpha (ESR1) in MCF7 breast cancer cells (Homo sapiens, UniProt P03372).
T1 sequence (P03372 1-595): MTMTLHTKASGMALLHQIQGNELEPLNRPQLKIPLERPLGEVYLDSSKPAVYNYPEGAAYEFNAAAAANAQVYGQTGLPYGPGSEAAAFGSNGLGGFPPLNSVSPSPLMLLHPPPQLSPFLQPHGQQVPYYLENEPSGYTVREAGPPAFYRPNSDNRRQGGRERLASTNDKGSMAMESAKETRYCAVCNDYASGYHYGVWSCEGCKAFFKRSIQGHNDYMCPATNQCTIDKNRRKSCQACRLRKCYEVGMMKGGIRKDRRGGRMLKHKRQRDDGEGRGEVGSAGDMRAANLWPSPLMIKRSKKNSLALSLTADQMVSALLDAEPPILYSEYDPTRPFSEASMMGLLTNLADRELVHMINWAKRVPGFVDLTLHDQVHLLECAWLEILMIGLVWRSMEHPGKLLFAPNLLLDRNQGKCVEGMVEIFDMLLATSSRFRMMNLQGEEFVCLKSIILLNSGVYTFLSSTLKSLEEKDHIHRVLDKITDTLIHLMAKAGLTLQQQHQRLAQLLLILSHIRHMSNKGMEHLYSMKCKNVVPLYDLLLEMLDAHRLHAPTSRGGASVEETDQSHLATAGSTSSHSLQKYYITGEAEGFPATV
Kind of assay: Breast Cancer Cell ERa High Content Fluorescence Imaging Degradation Assay (ER-alpha MCF7 HCS). It is filed as cell-based. The arrangement: endogenous in cells; host or cells: MCF7 breast cancer cells; key to ERalpha (WT) MCF7HCS (Sinf): % change in ERα level; DMSO = 0%, fulvestrant = 100% change. The following applies: 4 hours, plateau of the maximal effect; for ER-alpha MCF7HCS Sinf: DMSO and fulvestrant define 0% and 100% change in ESR1, Table 1a; for ERalpha (WT) MCF7HCS (Sinf): DMSO and fulvestrant define 0% and 100% change in ESR1, Table 1b. The method, then: All of the exemplary Formula I, II, and III compounds in Tables 1a and 1b were made and characterized by LCMS [M+H]^+ (liquid chromatography mass spectroscopy) with detection of parent ion. All of the exemplary Formula I, II, and III compounds in Tables 1a and 1b were tested for binding to ERa (Estrogen Receptor alpha) and biological activity according to the assays, protocols, and procedures of Examples 901-907. ER-alpha MCF7 HCS Sinf (%) values in Tables 1a and 1b were measured by the Breast Cancer Cell ERa High Content Fluorescence Imaging Degradation Assay of Example 901. ER-alpha MCF7 HCS EC50 (μM) values in Tables 1a and 1b were measured by the in vitro cell proliferation assays described in Examples 902 and 903. The rat uterine wet weight assays of Examples 906 and 907 allow rapid determination of compound antagonist activity in an ER responsive tissue (immature rat uterus) while competing against the native ER ligand estradiol, i.e. antagonist mode (Ashby, J.; et al (1997) Regulatory toxicology and pharmacology: RTP, 25 (3):226-31). Exemplary Formula I, II, and III compounds in Tables 1a and 1b have the following structures, corresponding names (ChemBioDraw, Version 12.0.2, CambridgeSoft Corp., Cambridge Mass.), and biological activity. Where more than one name is associated with a Formula I, II, and III compound or intermediate, the chemical structure shall define the compound.
MCF7 breast cancer cells were seeded on day 1 at a density of 10,000 cells per well in 384 well poly-lysine coated tissue culture plate (Greiner # T-3101-4), in 50 μL/well RPMI (phenol red free), 10% FBS (Charcoal stripped), containing L-glutamine. On day 2, compounds were prepared at 2 compound source concentrations: 100 μM and 1 μM (ultimately to give 2 overlapping titration curves), in a Labcyte low dead volume plate, 10 μL/well, and 10 μL of DMSO in designated wells for backfill, and 5 μM Fulvestrant (control compound) in designated wells. Compounds and controls were dispensed using a Labcyte Echo acoustic dispenser to dispense compounds with a predefined serial dilution (1.8×, 10 point, in duplicate) and appropriate backfill and control compounds (final total volume transferred was 417.5 nL and compound dispense volume ranges from 2.5 nL to 417.5 nL; 0.84% DMSO (v/v) final), ultimately producing a concentration range from 0.05 nM to 835 nM. Cell plates were incubated at 37° C., for 4 hours. Fixation and permeabilization were carried out using a Biotek EL406 plate washer and dispenser as follows. Cells were fixed by addition of 15 μL of 16% paraformaldehyde (Electron Microscopy Sciences #15710-S) directly to the 50 μL cell culture medium in each well using the peristaltic pump 5 μL cassette on a Biotek EL406 (final concentration of formaldehyde was 3.7% w/v). Samples were incubated 30 minutes. Well contents was aspirated and 50 μL/well of Phosphate Buffered Saline (PBS) containing 0.5% w/v bovine serum albumen, 0.5% v/v Triton X-100 (Antibody Dilution Buffer) was added to each well. Samples were incubated for 30 minutes. Well contents were aspirated and washed 3 times with 100 μL/well of PBS. Immunofluorescence staining of estrogen receptor alpha (ESR1) was carried out using a Biotek EL406 plate washer and dispenser as follows. The well supernatant was aspirated from the wells and 25 μL/well of anti-ESR1 mAb (F10) (Santa Cruz sc-8002) diluted 1:1000 in Antibody Dilution Buffer was dispensed. Samples were incubated for 2 hours at room temperature. Samples were washed 4 times with 100 μL/well of PBS. 25 uL (microliters)/well of secondary antibody solution (Alexafluor 488 conjugate anti-mouse IgG (LifeTechnologies # A21202) diluted 1:1000 and Hoechst 33342 1 μg/ml diluted in Antibody Dilution Buffer) were dispensed into each well. Samples were incubated for 2 hours at room temperature. Samples were washed 3 times with 100 μL/well of PBS using a Biotek EL406. Quantitative fluorescence imaging of ESR1 was carried out using a Cellomics Arrayscan V (Thermo). […]

Each structure is given as a SMILES string.

As for `C[C@@H]1CN(CC(C)(C)F)[C@H](c2c(F)cc(OCCN3CC(CF)C3)cc2F)c2[nH]c3ccccc3c21` (single isomer, unassigned) [Example 108], the “ER-alpha MCF7HCS Sinf” value is on record as −92.4%. Consider `C[C@@H]1Cc2c([nH]c3cccnc23)[C@@H](c2c(F)cc(OC3CN(CCCF)C3)cc2F)N1CC(C)(C)F` [Example 133, (6R,8R)-6-{2,6-Difluoro-4-[2-(3-fluoromethyl-azetidin-1-yl)-ethoxy]-phenyl}-7-(2-fluoro-2-methyl-propyl)-8-methyl-6,7,8,9-tetrahydro-5H-dipyrido[3,2-b;4′,3′-d]pyrrole], for which the “ER-alpha MCF7HCS Sinf” value is −94.5%. Same read-out and setting: as for `C[C@@H]1Cn2c(cc3ccccc32)[C@@H](c2c(F)cc(OC3CN(CCCF)C3)cc2F)N1CC(C)(F)CO` (stereo partly drawn) [Example 122, 3-((1R,3R)-1-(2,6-Difluoro-4-((1-(3-fluoropropyl)azetidin-3-yl)oxy)phenyl)-3-methyl-3,4-dihydropyrazino[1,2-a]indol-2(1H)-yl)-2-fluoro-2-methylpropan-1-ol], the figure is −97%; as for `C[C@H]1CCN(CC(C)(C)F)[C@@H](c2c(F)cc(OCCN3CC(CF)C3)cc2F)c2[nH]c3ccccc3c21` [Example 124, (1S,5S)-1-(2,6-difluoro-4-(2-(3-(fluoromethyl)azetidin-1-yl)ethoxy)phenyl)-2-(2-fluoro-2-methylpropyl)-5-methyl-1,2,3,4,5,10-hexahydroazepino[3,4-b]indole], −75%. With `C[C@@H]1Cc2oc3ccccc3c2[C@@H](c2c(F)cc(OCCN3CC(CF)C3)cc2F)N1CC(C)(C)F` (stereo in doubt) [Example 167, 1-(2,6-difluoro-4-(2-(3-(fluoromethyl)azetidin-1-yl)ethoxy)phenyl)-2-(2-fluoro-2-methylpropyl)-3-methyl-1,2,3,4-tetrahydrobenzofuro [3,2-c]pyridine], the “ERalpha (WT) MCF7HCS (Sinf)” value is recorded as −96. With `CC1Cc2c(c3ccccc3n2C)C(c2c(F)cc(OCCN3CC(CF)C3)cc2F)N1CC(C)(C)F` (racemic) [Example 139, (±)-1-(2-6-difluoro-4-(2-(3-(fluoromethyl)azetidin-1-yl)ethoxy)phenyl)-2-(2-fluoro-2-methylpropyl)-3,5-dimethyl-2,3,4,5-tetrahydro-1H-pyrido[4,3-b] indole], the “ER-alpha MCF7HCS Sinf” value was −88.6%. Regarding `C[C@@H]1Cc2sc3ccccc3c2[C@@H](c2ccc(OCCN3CC(CF)C3)cc2)N1CC(C)(C)F` [Example 128, (1R,3R)-2-(2-fluoro-2-methylpropyl)-1-(4-(2-(3-(fluoromethyl)azetidin-1-yl)ethoxy)phenyl)-3-methyl-1,2,3,4-tetrahydrobenzo[4,5]thieno[3,2-c]pyridine], the “ER-alpha MCF7HCS Sinf” value is reported as −101%.

`CC(C)(F)CN1[C@H](c2c(F)cc(OCCN3CC(CF)C3)cc2F)c2[nH]c3ccccc3c2[C@H]2CC[C@H]21` [Example 138, (2aR,4R,9cR)-4-(2,6-difluoro-4-(2-(3-(fluoromethyl)azetidin-1-yl)ethoxy)phenyl)-3-(2-fluoro-2-methylpropyl)-2,2a,3,4,5,9c-hexahydro-1H-cyclobuta[5,6]pyrido[3,4-b]indole]: the “ER-alpha MCF7HCS Sinf” value is on record as −68%. On to `C[C@H]1Cc2oc3ccccc3c2[C@H](c2c(F)cc(OCCN3CC(CF)C3)cc2F)N1CC(C)(C)F` (stereo in doubt) [Example 168, 1-(2,6-difluoro-4-(2-(3-(fluoromethyl)azetidin-1-yl)ethoxy)phenyl)-2-(2-fluoro-2-methylpropyl)-3-methyl-1,2,3,4-tetrahydrobenzofuro [3,2-c]pyridine], for which the “ERalpha (WT) MCF7HCS (Sinf)” value is given as −97. With `C[C@@H]1Cc2[nH]c3ccccc3c2[C@@H](c2c(F)cc(OCCN3CC(CF)C3)cc2F)N1CC(F)(F)CO` (single isomer, unassigned) [Example 147], the “ER-alpha MCF7HCS Sinf” value is on record as −95.7%.

As for `C[C@@H]1Cc2sc3ccccc3c2[C@@H](c2c(F)cc(NC3CN(CCCF)C3)cc2F)N1CC(F)(F)CO` [Example 166, 3-((1R,3R)-1-(2,6-difluoro-4-((1-(3-fluoropropyl)azetidin-3-yl)amino)phenyl)-3-methyl-3,4-dihydrobenzo[4,5]thieno[3,2-c]pyridin-2(1H)-yl)-2,2-difluoropropan-1-ol], the “ERalpha (WT) MCF7HCS (Sinf)” value was −101. On to `CC(C)(F)C(=O)N1CCCc2c([nH]c3ccccc23)[C@H]1c1c(F)cc(OCCN2CC(CF)C2)cc1F` [Example 106, (R)-1-(1-(2,6-difluoro-4-(2-(3-(fluoromethyl)azetidin-1-yl)ethoxy)phenyl)-3,4,5,10-tetrahydroazepino[3,4-b]indol-2(1H)-yl)-2-fluoro-2-methylpropan-1-one], for which the “ER-alpha MCF7HCS Sinf” value was −35%. Same read-out and setting: the figure for `C[C@@H]1Cc2[nH]c3ccccc3c2[C@@H](c2c(F)cc(NC3CN(CCCF)C3)cc2F)N1CC(F)F` [Example 150, N-(4-((1S,3R)-2-(2,2-difluoroethyl)-3-methyl-2,3,4,5-tetrahydro-1H-pyrido[4,3-b]indol-1-yl)-3,5-difluorophenyl)-1-(3-fluoropropyl) azetidin-3-amine] is −99.4%. Same read-out and setting: the figure for `C[C@@H]1Cc2c([nH]c3ccccc23)[C@@]2(CCc3cc(OCCN4CC(CF)C4)ccc32)N1CC(F)(F)F` [Example 115, (1S,3′R)-5-(2-(3-(fluoromethyl)azetidin-1-yl)ethoxy)-3′-methyl-2′-(2,2,2-trifluoroethyl)-2,2′,3,3′,4′,9′-hexahydrospiro [indene-1,1′-pyrido [3,4-b]indole]] is −98%. For `CC(C)C(=O)N1[C@H](c2c(F)cc(OCCN3CC(CF)C3)cc2F)c2sc3ccccc3c2C[C@H]1C` (relative stereo) [Example 102, 1-((1,3-trans)-1-(2,6-difluoro-4-(2-(3-(fluoromethyl)azetidin-1-yl)ethoxy)phenyl)-3-methyl-3,4-dihydrobenzo[4,5]thieno[2,3-c]pyridin-2(1H)-yl)-2-methylpropan-1-one], the “ER-alpha MCF7HCS Sinf” value is −64.5%.

With `C[C@@H]1Cc2[nH]c3ccccc3c2[C@@H](c2c(F)cc(NC3CN(CCCF)C3)cc2F)N1CC(F)(F)F` [Example 152, N-(3,5-difluoro-4-((1S,3R)-3-methyl-2-(2,2,2-trifluoroethyl)-2,3,4,5-tetrahydro-1H-pyrido[4,3-b]indol-1-yl)-phenyl)-1-(3-fluoropropyl) azetidin-3-amine], the “ER-alpha MCF7HCS Sinf” value is given as −99%.
